Laboratory results from PubChem BioAssay AID1745861.

Target: Solute carrier family 22 member 3 (Homo sapiens) (UniProt O75751)
Test: OCT3 (SLC22A3) uptake inhibitors, dose response, HEK293 JumpIn overexpressing cells, impedance, MPP+ (AID 1745861)
Details: impedance (xCELLigence)

Solute carrier family 22 member 3 (Homo sapiens), sequence (O75751 whole entry, looked up): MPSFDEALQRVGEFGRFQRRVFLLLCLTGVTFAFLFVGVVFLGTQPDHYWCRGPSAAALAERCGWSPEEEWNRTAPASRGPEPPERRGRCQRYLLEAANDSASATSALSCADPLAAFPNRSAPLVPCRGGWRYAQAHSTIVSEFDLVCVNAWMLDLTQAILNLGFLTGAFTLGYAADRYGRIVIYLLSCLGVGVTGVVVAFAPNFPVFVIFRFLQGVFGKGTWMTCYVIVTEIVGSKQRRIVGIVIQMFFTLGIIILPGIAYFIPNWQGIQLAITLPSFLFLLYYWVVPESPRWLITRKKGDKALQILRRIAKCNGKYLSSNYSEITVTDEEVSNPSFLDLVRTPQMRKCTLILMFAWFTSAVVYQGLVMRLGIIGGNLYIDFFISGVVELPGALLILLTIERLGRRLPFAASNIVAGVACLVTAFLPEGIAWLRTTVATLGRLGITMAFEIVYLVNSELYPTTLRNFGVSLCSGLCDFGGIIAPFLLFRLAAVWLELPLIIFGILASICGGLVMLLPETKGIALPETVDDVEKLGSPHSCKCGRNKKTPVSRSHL

IC50 [µM]	Compound
7.9	C=CC(=O)N1CCC[C@@H](n2nc(-c3ccc(Oc4ccccc4)cc3)c3c(N)ncnc32)C1
0.5	Cc1cn(-c2cc(NC(=O)c3ccc(C)c(Nc4nccc(-c5cccnc5)n4)c3)cc(C(F)(F)F)c2)cn1
1.6	C[C@]12C[C@H](O)[C@H]3[C@@H](CCC4=CC(=O)CC[C@@]43C)[C@@H]1CC[C@@H]2C(=O)CO

Further lines, the compound ahead of its results:

Compound	IC50 [µM]
CCN1/C(=C/c2ccc3ccccc3[n+]2CC)C=Cc2ccccc21	0.4
C[n+]1ccc(-c2ccccc2)cc1	199
